Experimental data from PMC10096453, “One-Pot Synthesis and Evaluation of Antioxidative Stress and Anticancer Properties of an Active Chromone Derivative” (Molecules, 2023).
Like-named read-outs stand apart in the source and are kept apart here.

What was measured:
Format in all cases: cell-based
[1] = MTT cytotoxicity assay, HACAT cells; details: human; for viability at 24 h, 100 µM: read-out: % Viability ± SD (at 100 μM) HACAT 24 h; for viability at 48 h, 100 µM: read-out: % Viability ± SD (at 100 μM) HACAT 48 h
Procedure: (§1) HEK293, HACAT, and HeLa cells were grown in modified Eagles’ minimum essential medium (EMEM, Gibco) with 10% fetal bovine serum (FBS, Gibco), 1% of 100 U/mL streptomycin and 100 U/mL penicillin (Gibco). Cells were seeded in culture flasks and maintained in an incubator at 37 °C in a humidified atmosphere with 5% CO2. After reaching 80–90% of confluence, cells were detached by incubation with 0.25% trypsin-0.2% EDTA (Gibco) for 5 min and plated for experiments.
(§2) This study examined cell cultures of HEK293, HACAT, and HeLa cells. The cytotoxicity of the test samples was carried out by the MTT (3-(4,5-dimethylthiazol-2-yl)-2,5-diphenyltetrazolium bromide) assay. The cells were seeded in 96-well microliter plates (2.0 × 10^4 cells/well). Stock solutions of the test compounds were prepared in DMSO. After 24 h, cells were treated with different concentrations of samples and diluted with media to obtain the final desired concentration. The treated cells were then incubated at 37 °C and 5% CO2 for 24 and 48 h. After incubation, the medium was replaced with 0.05% w/v of MTT solution in PBS and further incubated for 3 h. The solution was then discarded and DMSO was added to dissolve the formed formazan crystals. Each well’s absorbance (A) was measured at 570 nm using a microplate reader (FLUOstar Omega^TM, BMG Labtech, Ortenberg, Germany). All experiments were carried out in triplicate and repeated for at least three experiments.

HeLa cell = assay: MTT anticancer activity assay, HeLa cells; details: for Anticancer activity on cervical cancer cells / IC50: HeLa; for IC50 / viability at 100 µM: Homo sapiens
Procedure: as §1, §2

HEK293 cells [2] = assay: Protection against H2O2-induced cytotoxicity (MTT); details: 100 μM; HEK293, 7.5 mM H2O2 30 min
Procedure: The synthesized compounds were examined for the ability of the compounds to protect cells exposed to oxidative stress. Six active compounds from the antioxidant test, 2b, 2d, 2e, 2f, 2j, and 3i, were selected to study the ability of oxidative stress protection. The HEK293 cells were treated with 7.5 mM hydrogen peroxide for 30 min; samples and quercetin were added, and cell viability was investigated at 12 and 24 h treatment. The percentage of viable cells in each sample was calculated using the untreated cell as 100% survival (Figure 3).
Figure 3 Protective effect of synthesized compounds on H2O2-induced cytotoxicity in cultured HEK cells (means ± SD, n = 3). Data (cell viability, measured by the MTT assay) were expressed as a percentage of the control group, which is 100%. The results were calculated from three independent experiments and are shown as mean ± SD. Compared to the H2O2 model group, the p values were calculated using a one-way ANOVA with Tukey (Turkey HSD) multiple comparison analysis; * p < 0.05 at 12 h treatment, # p < 0.05 at 24 h treatment.

HeLa cells [3] = assay: Apoptosis, Annexin V & Dead Cell flow cytometry; details: IC50 concentration, 24 h
Procedure: Examining apoptosis induction by some samples was confirmed by the determination of annexin V (p ≤ 0.05) using the IC50 for 2b, 2e, 2f, 2j, and quercetin in the HeLa cell line (Figure 5a).
HeLa cells were seeded overnight at 1 × 10^5 cells/1.5 mL/well in a 6-well plate. […] The cells were […] and washed with PBS. The collected cells were diluted with serum-free medium to a suitable volume. The 100 μL of cell suspension was added to 100 μL of Muse^TM Annexin V & Dead Cell reagent and incubated for 20 min at room temperature. Cells were analyzed by flow cytometry (Guava Muse Cell Analyzer, Luminex, Austin, TX USA) with Guava suite software 3.4.

HeLa cells [4] = assay: Cellular ROS assay (ROS deep red fluorescence kit); details: pretreatment 50, 100, 150 μM for 24 h; 5 mM H2O2 30 min
Procedure: ROS is the main contributor to cell death. These reactive molecules are formed by several mechanisms and can be detected by various techniques. In order to investigate the level of cellular ROS after treatment with compounds, the accumulation of intracellular ROS in cells was quantified with a cellular ROS assay kit (ab186029, Abcam, Boston, USA) fluorescence assay. After pretreatment with 2f, 2j, and 3i at 50, 100, and 150 μM for 24 h, cell stress was induced with 5 mM hydrogen peroxide for 30 min. The cells in each well were collected and resuspended with a serum-free medium containing the ROS red probe. Subsequently, cells were incubated at 37 °C for 30 min in the dark, and fluorescence was read at Ex/Em = 650/675 nm.
In this study, Hela cells were seeded overnight at 20,000 cells/90 µL/well in a black wall/clear bottom 96-well plate. Cells included those untreated (control) and those pre-treated with compounds at various concentrations (50, 100, 150 μM) for 24 h. The ROS deep red assay solution (100 μL/well) was added and incubated at 5% CO2, 37 °C incubator for 30 min. The fluorescence signal was monitored at Ex/Em = 650/675 nm (cut off = 665 nm) with bottom read mode within 30 min (cellular ROS assay kit, ab186029, abcam).

[5] = MTT cytotoxicity assay, HEK293 cells; details: human, HEK293 cells, 100 μM; for viability at 24 h, 100 µM: read-out: % Viability ± SD (at 100 μM) HEK293 24 h; for viability at 48 h, 100 µM: read-out: % Viability ± SD (at 100 μM) HEK293 48 h
Procedure: as §1, §2

HEK293 cells [6] = assay: Cell migration scratch assay, HEK293; details: HEK293, 100 μM, 24 and 48 h
Procedure: Cell migration in the HEK293 and the HeLa cell lines was investigated. The assay was conducted to investigate cell maintenance after being damaged. The active samples from in vitro antioxidant activity were examined. Cells were grown in a 24-well plate until 80% confluence and treated with 2f and 2j for 24 or 48 h compared to the untreated control. The cells in each well were then scratched to create a wound area across the center of the plates using a plastic 20 μL pipette tip. Cell images were taken immediately, and the scratch area was measured at 0, 24, and 48 h. During the experiment, the percentage of wound area was tracked as an indirect assessment. Compared to the control, the percentage of empty area change at each time point was quantified with a Nikon eclipse Ts2R inverted microscope.
Figure 7 A scratch assay was performed to examine the migration ability of synthesized compounds 2f and 2j at 100 μM compared with untreated control. Representative pictures of the assay induce the migration of HEK cells using quercetin as a reference. Pictures were taken at the start of the experiment (0 h) 24 and 48 h later. Pictures of representative experiments are shown, and the relative migration of cells is represented with a bar graph; means ± SD (n = 3; *: p < 0.05 and **: p < 0.001, Turkey HSD), Scale bars represent 500 μm.

[7] = 24 h, read-out: % Viability ± SD (at 100 μM) HeLa 24 h
[8] = 48 h, read-out: % Viability ± SD (at 100 μM) HeLa 48 h

SMILES | viability at 24 h, 100 µM [1] [%] | viability at 48 h, 100 µM [1] [%] | Anticancer activity on cervical cancer cells (HeLa cell; 24 h) | IC50 (HeLa cell; 24 h) [µM] | viability at 100 µM (HeLa cell; [7]) [%] | viability at 100 µM (HeLa cell; [8]) [%] | Protection of cells from oxidative stress (HEK293 cells [2]) | Apoptosis induction (HeLa cells [3]) | Change in dead phase compared to the control (HeLa cells [3]) | Change in early apoptosis phase compared to the control (HeLa cells [3]) | Change in late apoptosis phase compared to the control (HeLa cells [3]) | Change in live phase compared to the control (HeLa cells [3]) [%] | Cellular ROS fluorescence intensity vs H2O2-treated cells (HeLa cells [4]) | viability at 24 h, 100 µM [5] [%] | viability at 48 h, 100 µM [5] [%] | Cell migration vs untreated (HEK293 cells [6])
O=C(c1ccccc1)c1c(-c2ccccc2)oc2c(O)c(O)ccc2c1=O [2f, 3-Benzoyl-7,8-dihydroxy-2-phenyl-4H-chromen-4-one] | 81.6 ± 8.46 | 77.1 ± 5.03 | contained anticancer activity | 191 ± 6.01 | 109.3 ± 0.92 | 29.2 ± 0.4 | able to protect cells from oxidative stress | induced apoptosis in tumor cells | +5.8% | +6.3% | +1.2% | −12.1 | significantly reduced | 105 ± 1.19 | 74.7 ± 0.83 | significant induction of cell migration
O=C(Oc1ccc2c(=O)c(C(=O)c3ccccc3)c(-c3ccccc3)oc2c1O)c1ccccc1 [2j, 3-Benzoyl-8-hydroxy-4-oxo-2-phenyl-4H-chromen-7-yl benzoate] | 72.6 ± 5.53 | 58 ± 2.63 | contained anticancer activity | 101 ± 3.18 | 65.2 ± 1.42 | 30 ± 1.23 | able to protect cells from oxidative stress | – | – | – | – | – | significantly reduced | 96 ± 2.62 | 71.6 ± 5.19 | significant induction of cell migration
O=c1c(O)c(-c2ccc(O)c(O)c2)oc2cc(O)cc(O)c12 [Quercetin, quercetin, reference compound] | 85.6 ± 125 | 76.8 ± 2.32 | – | 192.4 ± 1.27 | 69.1 ± 1.93 | 19.2 ± 0.25 | – | – | – | – | – | – | – | 102 ± 1.58 | 86.6 ± 4.66 | significant induction of cell migration
